Measured values reported in the NIST ThermoML archive (doi:10.1016/j.jct.2013.10.034).
± gives the expanded uncertainty stated by the source.

Key:
[1] = Liquid; for viscosity / mass density: 100 kPa; for viscosity: Falling or rolling sphere viscometry; for mass density: Vibrating tube method; for vapor or sublimation pressure: Ebulliometric method (Recirculating still)
[2] = xn = mol fraction of the nth substance listed; settings: 100 kPa, Liquid, x2 = 0; for viscosity: Falling or rolling sphere viscometry; for mass density: Vibrating tube method

Compound	viscosity ([1]; 298.15 K) [mPa·s]	mass density ([1]; 298.15 K) [kg/m3]	viscosity ([1]; 303.15 K) [mPa·s]	mass density ([1]; 303.15 K) [kg/m3]	viscosity ([1]; 308.15 K) [mPa·s]	mass density ([1]; 308.15 K) [kg/m3]	viscosity ([1]; 313.15 K) [mPa·s]	mass density ([1]; 313.15 K) [kg/m3]	viscosity ([1]; 318.15 K) [mPa·s]	mass density ([1]; 318.15 K) [kg/m3]	viscosity ([1]; 323.15 K) [mPa·s]	mass density ([1]; 323.15 K) [kg/m3]	viscosity ([1]; 328.15 K) [mPa·s]	mass density ([1]; 328.15 K) [kg/m3]	viscosity ([1]; 333.15 K) [mPa·s]	mass density ([1]; 333.15 K) [kg/m3]	viscosity ([1]; 338.15 K) [mPa·s]	mass density ([1]; 338.15 K) [kg/m3]	viscosity ([1]; 343.15 K) [mPa·s]	mass density ([1]; 343.15 K) [kg/m3]	further results
CCCC[N+]1(C)CCCCC1.N#C[N-]C#N [1-butyl-1-methylpiperidinium dicyanamide]	123.3 ± 20	1016.13 ± 0.5	92.97 ± 15	1012.98 ± 0.5	75.58 ± 12	1010.65 ± 0.49	60.93 ± 9.8	1007.92 ± 0.49	49.79 ± 8	1005.2 ± 0.49	41.31 ± 6.6	1002.47 ± 0.48	34.72 ± 5.6	999.77 ± 0.48	29.45 ± 4.7	997.08 ± 0.48	23.31 ± 3.7	994.39 ± 0.48	21.98 ± 3.5	991.72 ± 0.48	–
CCCC[N+]1(C)CCCC1.N#CN=C=[N-] [1-butyl-1-methylpyrrolidinium dicyanamide]	34.74 ± 5.6	1019.2 ± 1.4	29.33 ± 4.7	1016.38 ± 1.4	25.09 ± 4	1013.58 ± 1.3	21.7 ± 3.5	1010.79 ± 1.3	18.95 ± 3	1008 ± 1.3	16.72 ± 2.7	1005.23 ± 1.3	14.84 ± 2.4	1002.48 ± 1.3	13.28 ± 2.1	999.74 ± 1.3	11.96 ± 1.9	997 ± 1.3	10.82 ± 1.7	994.28 ± 1.3	–
O [water]	0.89 ± 0.14	–	0.808 ± 0.13	–	0.74 ± 0.12	–	0.681 ± 0.11	992.15 ± 0.2	0.63 ± 0.1	990.14 ± 0.2	0.593 ± 0.095	987.93 ± 0.2	0.56 ± 0.09	985.61 ± 0.2	0.528 ± 0.085	983.17 ± 0.2	0.5 ± 0.08	980.3 ± 0.2	0.473 ± 0.076	978.1 ± 0.2	vapor or sublimation pressure ([1]; 328.15 K): 15.8 ± 0.5 kPa; vapor or sublimation pressure ([1]; 338.15 K): 25.1 ± 0.5 kPa; vapor or sublimation pressure ([1]; 348.15 K): 38.6 ± 0.5 kPa; vapor or sublimation pressure ([1]; 358.15 K): 57.9 ± 0.5 kPa; vapor or sublimation pressure ([1]; 368.15 K): 84.4 ± 0.5 kPa
O [water] + CCCC[N+]1(C)CCCC1.N#CN=C=[N-]	–	–	–	–	–	–	–	–	–	–	–	–	–	–	–	–	–	–	–	–	viscosity ([2]; 298.15 K): 0.89 ± 0.14 mPa·s; viscosity ([2]; 303.15 K): 0.808 ± 0.13 mPa·s; viscosity ([2]; 308.15 K): 0.74 ± 0.12 mPa·s; viscosity ([2]; 313.15 K): 0.681 ± 0.11 mPa·s; mass density ([2]; 313.15 K): 992.15 ± 0.2 kg/m3; viscosity ([2]; 318.15 K): 0.63 ± 0.1 mPa·s; mass density ([2]; 318.15 K): 990.14 ± 0.2 kg/m3; viscosity ([2]; 323.15 K): 0.593 ± 0.095 mPa·s; mass density ([2]; 323.15 K): 987.93 ± 0.2 kg/m3; viscosity ([2]; 328.15 K): 0.56 ± 0.09 mPa·s; mass density ([2]; 328.15 K): 985.61 ± 0.2 kg/m3; viscosity ([2]; 333.15 K): 0.528 ± 0.085 mPa·s; mass density ([2]; 333.15 K): 983.17 ± 0.2 kg/m3; viscosity ([2]; 338.15 K): 0.5 ± 0.08 mPa·s; mass density ([2]; 338.15 K): 980.3 ± 0.2 kg/m3; viscosity ([2]; 343.15 K): 0.473 ± 0.076 mPa·s; mass density ([2]; 343.15 K): 978.1 ± 0.2 kg/m3
O [water] + CCCC[N+]1(C)CCCCC1.N#C[N-]C#N	–	–	–	–	–	–	–	–	–	–	–	–	–	–	–	–	–	–	–	–	viscosity ([2]; 298.15 K): 0.89 ± 0.14 mPa·s; viscosity ([2]; 303.15 K): 0.808 ± 0.13 mPa·s; viscosity ([2]; 308.15 K): 0.74 ± 0.12 mPa·s; viscosity ([2]; 313.15 K): 0.681 ± 0.11 mPa·s; mass density ([2]; 313.15 K): 992.15 ± 0.2 kg/m3; viscosity ([2]; 318.15 K): 0.63 ± 0.1 mPa·s; mass density ([2]; 318.15 K): 990.14 ± 0.2 kg/m3; viscosity ([2]; 323.15 K): 0.593 ± 0.095 mPa·s; mass density ([2]; 323.15 K): 987.93 ± 0.2 kg/m3; viscosity ([2]; 328.15 K): 0.56 ± 0.09 mPa·s; mass density ([2]; 328.15 K): 985.61 ± 0.2 kg/m3; viscosity ([2]; 333.15 K): 0.528 ± 0.085 mPa·s; mass density ([2]; 333.15 K): 983.17 ± 0.2 kg/m3; viscosity ([2]; 338.15 K): 0.5 ± 0.08 mPa·s; mass density ([2]; 338.15 K): 980.3 ± 0.2 kg/m3; viscosity ([2]; 343.15 K): 0.473 ± 0.076 mPa·s; mass density ([2]; 343.15 K): 978.1 ± 0.2 kg/m3
